Reference: patent US8741836B2, “Polypeptides” (Novo Nordisk A/S, priority 2011, dated 2014)
Read-outs that look alike come from different tables or passages of the source. Starred links: 1 amine or outer side, 2 acyl side, 3 side chain; linkers in the order of their positions; H or OH if unused. Positions of bridges follow the written chain, without caps; N, C: chain ends. Residues, ends and D or L forms follow the SMILES beside them. Groups on a side chain read outwards from the residue. *: point of attachment. C18 diacid = O=C(O)CCCCCCCCCCCCCCCCC(=O)*; γGlu = O=C(O)[C@H](CCC(=O)[*:2])N[*:1]; AEEA = NCCOCCOCC(=O)O

Key:
[1] = Assay (III) ThT fibrillation assay for physical stability; assay type: physicochemical
In short: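 Freshly prepared, pH-adjusted formulations with 1 μM ThT incubated at 37 °C under 960 rpm orbital shaking (1 mm), fluorescence (ex 444, em 485 nm) read every 20 min. […] Peptide content before and after measured by reverse-phase HPLC against pramlintide standard.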

[2] = Assay (IV) determination of solubility; assay type: physicochemical
Experimental: Assay (IV)—Determination of Solubility
The polypeptide was dissolved in water at −500 nmol/ml and mixed 1:1 with a series of buffers (100 mM glycylglycine pH 3.0, 100 mM glycylglycine pH 4.0, 100 mM glycylglycine pH 5.0, 100 mM bistrispropane pH 6.0, 100 mM bistrispropane pH 6.5, 100 mM bistrispropane pH 7.0, 100 mM bistrispropane pH 7.5, 100 mM bistrispropane pH 8.0). After 18 hours at room temperature the samples were centrifuged and the polypeptide concentration determined by HPLC.

ThT pH 4.0 lag time (physical stability in fibrillogenesis assay) ([1]; pH 4.0): >45 h
ThT pH 4.0 lag time ([1]; pH 4.0, ThT fibrillation assay): >45 h
solubility at 18 h ([2]; bistrispropane buffer, pH 6.5, read-out: Solubility): > 200 µM
solubility at 18 h ([2]; bistrispropane buffer, pH 7.5, read-out: Solubility pH 7.5): > 200 µM
solubility at 18 h ([2]; bistrispropane buffer, pH 6.0, read-out: Solubility): > 200 µM
solubility at 18 h ([2]; bistrispropane buffer, pH 7.0, read-out: Solubility pH 7.0): > 200 µM
solubility at 18 h ([2]; bistrispropane buffer, pH 8.0, read-out: Solubility): > 200 µM
solubility at 18 h ([2]; glycylglycine buffer, pH 3.0, read-out: Solubility): > 200 µM
solubility at 18 h ([2]; glycylglycine buffer, pH 4.0, read-out: Solubility pH 4.0): > 200 µM
solubility at 18 h ([2]; glycylglycine buffer, pH 5.0, read-out: Solubility): > 200 µM
solubility at 18 h ([2]; pH 4.0, read-out: Solubility): >200 µM
solubility at 18 h ([2]; pH 7.0, read-out: Solubility): >200 µM
solubility at 18 h ([2]; pH 7.5, read-out: Solubility): >200 µM
SMILES: CC[C@H](C)[C@H](NC(=O)[C@@H]1CCCN1C(=O)CNC(=O)[C@H](Cc1ccccc1)NC(=O)[C@H](CC(N)=O)NC(=O)[C@H](CCCCNC(=O)COCCOCCNC(=O)COCCOCCNC(=O)CC[C@H](NC(=O)CCCCCCCCCCCCCCCCC(=O)O)C(=O)O)NC(=O)[C@H](CO)NC(=O)[C@H](CO)NC(=O)[C@H](Cc1c[nH]cn1)NC(=O)[C@H](Cc1c[nH]cn1)NC(=O)[C@H](CC(C)C)NC(=O)[C@H](Cc1ccccc1)NC(=O)[C@H](CCC(=O)O)NC(=O)[C@H](C)NC(=O)[C@H](CC(C)C)NC(=O)[C@H](CCCNC(=N)N)NC(=O)[C@H](CCC(N)=O)NC(=O)[C@@H](NC(=O)[C@H](C)NC(=O)[C@@H]1CSSC[C@H](NC(=O)[C@@H](N)CCCCN)C(=O)N[C@@H](CC(N)=O)C(=O)N[C@@H]([C@@H](C)O)C(=O)N[C@@H](C)C(=O)N[C@@H]([C@@H](C)O)C(=O)N1)[C@@H](C)O)C(=O)N[C@@H](CC(C)C)C(=O)N1CCC[C@H]1C(=O)N1CCC[C@H]1C(=O)N[C@H](C(=O)N[C@@H](CC(N)=O)C(=O)N[C@H](C(=O)NCC(=O)N[C@@H](CO)C(=O)N[C@@H](CCC(=O)O)C(=O)N[C@H](C(=O)N[C@@H](Cc1ccc(O)cc1)C(N)=O)[C@@H](C)O)C(C)C)[C@@H](C)O [Example 74, N-epsilon21-[2-(2-{2-[2-(2-{2-[(S)-4-Carboxy-4-(17-carboxyheptadecanoylamino)butyrylamino]ethoxy}ethoxy)acetylamino]ethoxy}ethoxy)acetyl]-[Glu14,His17,Lys21,Glu35]-pramlintide] (H-KCNTATCATQRLAEFLHHSSK([AEEA-AEEA-γGlu-C18 diacid])NFGPILPPTNVGSETY-NH2; disulfide 2-7 (inferred); N-terminus and C-terminus assumed)
